Test results published in ChEMBL document CHEMBL1125860 (J Med Chem, 1991).
Values belong to the compound of their own block, whether it stands above or below them. The source made the active and inactive calls. The calls are words filed in the database; no cut-off is given here.

How the values were obtained:
Rattus norvegicus [1] = organism: Rattus norvegicus; test: In vitro inhibition of sorbitol accumulation was measured in rat sciatic nerves incubated in the presence of 50 mM glucose at 10e-6 M concentration; type: functional, Sciatic nerve
Rattus norvegicus [2] = organism: Rattus norvegicus; test: In vitro inhibition of sorbitol accumulation was measured in rat sciatic nerves incubated in the presence of 50 mM glucose at 10e-5 M concentration; type: functional, Sciatic nerve
Rattus norvegicus [3] = test: In vivo inhibition of galactitol accumulation in diaphragm of rat at 20 mg/kg/day; type: functional
Rattus norvegicus [4] = test: In vivo inhibition of galactitol accumulation in sciatic nerves of rat at 20 mg/kg/day; type: functional; details: Sciatic nerve
Rattus norvegicus [5] = test: In vivo inhibition of galactitol accumulation in sciatic nerves of rat at 16 mg/kg/day; type: functional; details: Sciatic nerve
[6] = target: Aldo-keto reductase family 1 member B1 (Bos taurus) (UniProt P16116); test: In vitro % decrease of aldose reductase measured in isolated partially purified bovine lens preparations at 10e-7 M concentration
Rattus norvegicus [7] = test: In vivo inhibition of galactitol accumulation in sciatic nerves of rat at 25 mg/kg/day; type: functional; details: Sciatic nerve
Rattus norvegicus [8] = test: In vivo inhibition of galactitol accumulation in sciatic nerves of rat at 15 mg/kg/day; type: functional; details: Sciatic nerve
Rattus norvegicus [9] = test: In vivo inhibition of galactitol accumulation in diaphragm of rat at 25 mg/kg/day; type: functional
Rattus norvegicus [10] = test: In vivo inhibition of galactitol accumulation in diaphragm of rat at 15 mg/kg/day; type: functional
Rattus norvegicus [11] = test: In vivo inhibition of galactitol accumulation in sciatic nerves of rat at 114 mg/kg/day; Not significant; type: functional, organism-based; details: Sciatic nerve
Rattus norvegicus [12] = test: In vivo inhibition of galactitol accumulation in diaphragm of rat at 114 mg/kg/day; Not significant; type: functional, organism-based
Rattus norvegicus [13] = organism: Rattus norvegicus; test: inhibition of aldose reductase activity was measured by measuring […] in the RBC of galactose fed rat.; type: functional
Rattus norvegicus [14] = organism: Rattus norvegicus; test: inhibition of aldose reductase activity was measured by measuring sorbitor accumulation in the sciatic nerves of STZ diabetic rat.; type: functional; details: Sciatic nerve
Rattus norvegicus [15] = organism: Rattus norvegicus; test: inhibition of aldose reductase activity was measured by measuring […] in the sciatic nerves of galactose fed rat.; type: functional; details: Sciatic nerve
Rattus norvegicus [16] = test: In vivo inhibition of galactitol accumulation in diaphragm of rat at 6 mg/kg/day; type: functional
Rattus norvegicus [17] = test: In vivo inhibition of galactitol accumulation in sciatic nerves of rat at 6 mg/kg/day; type: functional; details: Sciatic nerve
Rattus norvegicus [18] = organism: Rattus norvegicus; test: Inhibition of galactitol accumulation in rat RBC incubated in presence of 50 mM glucose; type: functional, organism-based
Rattus norvegicus [19] = organism: Rattus norvegicus; test: Inhibition of galactitol accumulation in sciatic nerves of rat incubated in presence of 50 mM glucose.; type: functional, organism-based; details: Sciatic nerve
Rattus norvegicus [20] = organism: Rattus norvegicus; test: Inhibition of galactitol accumulation in rat lens incubated in presence of 50 mM glucose; type: functional, organism-based; details: Lens of camera-type eye
Rattus norvegicus [21] = test: In vivo inhibition of galactitol accumulation in diaphragm of rat at 133 mg/kg/day; type: functional
Rattus norvegicus [22] = test: In vivo inhibition of galactitol accumulation in sciatic nerves of rat at 133 mg/kg/day; type: functional; details: Sciatic nerve
Rattus norvegicus [23] = test: In vivo inhibition of galactitol accumulation in sciatic nerves of rat at 94 mg/kg/day; Not significant; type: functional, organism-based; details: Sciatic nerve
Rattus norvegicus [24] = test: In vivo inhibition of galactitol accumulation in diaphragm of rat at 94 mg/kg/day; type: functional
Rattus norvegicus [25] = test: In vivo inhibition of galactitol accumulation in sciatic nerves of rat at 18 mg/kg; type: functional; details: Sciatic nerve
Rattus norvegicus [26] = test: In vivo inhibition of galactitol accumulation in diaphragm of rat at 18 mg/kg/day; type: functional
Rattus norvegicus [27] = test: In vivo inhibition of galactitol accumulation in sciatic nerves of rat at 53 mg/kg/day; Not significant; type: functional, organism-based; details: Sciatic nerve
Rattus norvegicus [28] = test: In vivo inhibition of galactitol accumulation in diaphragm of rat at 53 mg/kg/day; Not significant; type: functional, organism-based
Rattus norvegicus [29] = test: In vivo inhibition of galactitol accumulation in diaphragm of rat at 50 mg/kg; type: functional
Rattus norvegicus [30] = test: In vivo inhibition of galactitol accumulation in sciatic nerves of rat at 24 mg/kg/day; type: functional; details: Sciatic nerve
Rattus norvegicus [31] = test: In vivo inhibition of galactitol accumulation in diaphragm of rat at 24 mg/kg/day; type: functional
Rattus norvegicus [32] = test: In vivo inhibition of galactitol accumulation in sciatic nerves of rat at 50 mg/kg/day; type: functional; details: Sciatic nerve
Rattus norvegicus [33] = test: In vivo inhibition of galactitol accumulation in diaphragm of rat at 28 mg/kg/day; type: functional
Rattus norvegicus [34] = test: In vivo inhibition of galactitol accumulation in sciatic nerves of rat at 28 mg/kg/day; type: functional; details: Sciatic nerve
Rattus norvegicus [35] = test: In vivo inhibition of galactitol accumulation in diaphragm of rat at 43 mg/kg/day; Not significant; type: functional, organism-based
Rattus norvegicus [36] = test: In vivo inhibition of galactitol accumulation in sciatic nerves of rat at 43 mg/kg/day; Not significant; type: functional, organism-based; details: Sciatic nerve

SMILES: COc1ccc2c(C(=O)N(C)CC(=O)O)cc(C)cc2c1Br
inhibition (Rattus norvegicus [11]): inactive
Inhibition (Rattus norvegicus [1]): 20%
Inhibition (Rattus norvegicus [2]): 52%
inhibition (Rattus norvegicus [12]): inactive
inhibition [6]: 63%

SMILES: COc1ccc2c(C(=S)N(C)CC(=O)O)cccc2c1C(F)(F)F [TOLRESTAT]
ED50 (Rattus norvegicus [13]): < 2 mg/kg
ED50 (Rattus norvegicus [14]): 4.8 mg/kg
ED50 (Rattus norvegicus [15]): 6.4 mg/kg
Inhibition (Rattus norvegicus [1]): 61%
inhibition in vivo at 6 mg/kg/day (Rattus norvegicus [16]): 80%
Inhibition (Rattus norvegicus [2]): 82%
inhibition in vivo at 6 mg/kg/day (Rattus norvegicus [17]): 53%
IC50 (Rattus norvegicus [18]): 15 nM
IC50 (Rattus norvegicus [19]): 540 nM
IC50 (Rattus norvegicus [20]): 1000 nM

SMILES: COc1ccc2c(C(=S)N(C)CC(=O)O)cc(-c3ccccc3)cc2c1Br
Inhibition (Rattus norvegicus [1]): 30%
Inhibition (Rattus norvegicus [2]): 68%
inhibition in vivo at 133 mg/kg/day (Rattus norvegicus [21]): 85%
inhibition in vivo at 133 mg/kg/day (Rattus norvegicus [22]): 58%
inhibition [6]: 81%

SMILES: CCCCc1ccc2c(C(F)(F)F)c(OC)ccc2c1C(=O)N(C)CC(=O)O
inhibition (Rattus norvegicus [23]): inactive
inhibition in vivo at 94 mg/kg/day (Rattus norvegicus [24]): 37%
inhibition [6]: 23%

SMILES: COc1ccc2c(C(F)(F)F)c(OC)ccc2c1C(=O)N(C)CC(=O)O
Inhibition (Rattus norvegicus [1]): 33%
Inhibition (Rattus norvegicus [2]): 48%
inhibition (Rattus norvegicus [27]): inactive
inhibition (Rattus norvegicus [28]): inactive
inhibition [6]: 62%

SMILES: COc1ccc2c(C(=O)N(C)CC(=O)O)c(OCC(F)(F)F)ccc2c1C(F)(F)F
inhibition in vivo at 50 mg/kg (Rattus norvegicus [29]): 82%
inhibition in vivo at 24 mg/kg/day (Rattus norvegicus [30]): 37%
Inhibition (Rattus norvegicus [1]): 31%
Inhibition (Rattus norvegicus [2]): 57%
inhibition in vivo at 24 mg/kg/day (Rattus norvegicus [31]): 65%
inhibition in vivo at 50 mg/kg/day (Rattus norvegicus [32]): 79%
inhibition [6]: 67%

SMILES: CCOC(=O)N(CC(=O)O)C(=O)c1c(Br)ccc2c(C(F)(F)F)c(OC)ccc12
inhibition (Rattus norvegicus [35]): inactive
Inhibition (Rattus norvegicus [1]): 52%
Inhibition (Rattus norvegicus [2]): 73%
inhibition (Rattus norvegicus [36]): inactive
inhibition [6]: 76%

More lines, main results first:

inhibition [6]: 80%
SMILES: COc1ccc2c(C(=O)N(C)CC(=O)O)c(F)ccc2c1C(F)(F)F
Inhibition (Rattus norvegicus [1]): 41%
Inhibition (Rattus norvegicus [2]): 66%
inhibition in vivo at 20 mg/kg/day (Rattus norvegicus [3]): 72%
inhibition in vivo at 20 mg/kg/day (Rattus norvegicus [4]): 62%
inhibition in vivo at 16 mg/kg/day (Rattus norvegicus [5]): 45%

inhibition [6]: 87%
SMILES: CCOC(=O)N(CC(=O)O)C(=O)c1c(F)ccc2c(C(F)(F)F)c(OC)ccc12
Inhibition (Rattus norvegicus [1]): 51%
inhibition in vivo at 25 mg/kg/day (Rattus norvegicus [7]): 70%
Inhibition (Rattus norvegicus [2]): 75%
inhibition in vivo at 15 mg/kg/day (Rattus norvegicus [8]): 55%
inhibition in vivo at 25 mg/kg/day (Rattus norvegicus [9]): 65%
inhibition in vivo at 15 mg/kg/day (Rattus norvegicus [10]): 59%

inhibition [6]: 72%
SMILES: COc1ccc2c(C(=S)N(C)CC(=O)O)cccc2c1Br
inhibition in vivo at 25 mg/kg/day (Rattus norvegicus [7]): 64%
inhibition in vivo at 18 mg/kg (Rattus norvegicus [25]): 39%
inhibition in vivo at 18 mg/kg/day (Rattus norvegicus [26]): 88%
inhibition in vivo at 25 mg/kg/day (Rattus norvegicus [9]): 90%

inhibition [6]: 87%
SMILES: CCOc1ccc2c(C(F)(F)F)c(OC)ccc2c1C(=S)N(C)CC(=O)O
inhibition in vivo at 28 mg/kg/day (Rattus norvegicus [33]): 85%
inhibition in vivo at 28 mg/kg/day (Rattus norvegicus [34]): 46%
